Reference: patent US6022696A, “Methods of identifying agonists or antagonists of angiotensin IV” (Washington State University Research Foundation, priority 1998, dated 2000)

Assay: Stability of angiotensin peptides in binding assay buffer / assay conditions
Assay type: physicochemical
Settings: 4 h at 37° C., reverse phase HPLC

## CC[C@H](C)[C@H](NC(=O)[C@H](Cc1ccc(O)cc1)NC(=O)[C@@H](N)C(C)C)C(=O)N[C@@H](Cc1cnc[nH]1)C(=O)N1CCC[C@H]1C(=O)N[C@@H](Cc1ccccc1)C(=O)O [AIV, Val1 Tyr2 Ile3 His4 Pro5 Phe6]
  hydrolysis in binding buffer: less than 10%
